Results reported in patent US20110318741A1, “BIOMARKERS FOR THE TREATMENT OF PSORIASIS” (priority 2010, published 2011).

System: psoriasis lesional skin
Test: Histological analysis (immunohistochemistry, H&E) of skin biopsies from psoriasis patients in a clinical trial
Format: in vivo, human
Settings: for CD56 in Epidermis: Biopsy Parameters Median Change (%) / Langerin in Dermis: Biopsy Parameters Median Change (%) / CD11c in Epidermis: Biopsy Parameters Median Change (%) / CD3 in Dermis: Biopsy Parameters Median Change (%) / CD3 in Epidermis: Biopsy Parameters Median Change (%) / Thickness: Biopsy Parameters Median Change (%) / CD11c in Dermis: Biopsy Parameters Median Change (%) / CD56 in Dermis: Biopsy Parameters Median Change (%) / Langerin in Epidermis: Biopsy Parameters Median Change (%): subjects also with PASI values
Experimental: Skin biopsies were evaluated on 20 patients in a clinical trial, where 20 mg of (S)—N-(2-(1-(3-ethoxy-4-methoxyphenyl)-2-(methylsulfonyl)ethyl)-1,3-dioxoisoindolin-4-yl)acetamide was administered b.i.d. to patients with psoriasis. Skin biopsies were done 4 weeks and 12 weeks post-treatment.
The biopsies were subjected to a histological analysis in which response was assessed in H&E stained sections of skin biopsies and after staining frozen sections of skin biopsies with antibodies to keratin 16. CD3, CD11c. ICAM-1. Langerin, CD56, Foxp3, and HLA-DR. This analysis thus included an assessment of epidermal growth/differentiation, skin infiltration by T-cells and DC subsets, presence of regulatory T-cells, and presence of inflammation-regulating molecules in skin lesions.
The pharmacodynamic effects of (S)—N-(2-(1-(3-ethoxy-4-methoxyphenyl)-2-(methylsulfonyl)ethyl)-1,3-dioxoisoindolin-4-yl)acetamide were studied in skin biopsies from subjects treated with the compound in a phase 2, multi-center, open-label study evaluating the safety, tolerability, and efficacy of the compound in recalcitrant psoriasis vulgaris. Skin biopsies were taken from uninvolved and involved skin at baseline, and from involved skin after treatment with (S)—N-(2-(1-(3-ethoxy-4-methoxyphenyl)-2-(methylsulfonyl)ethyl)-1,3-dioxoisoindolin-4-yl)acetamide 20 mg BID after 4 and 12 weeks.
Skin biopsies were evaluated on 20 patients in this trial. The biopsies were analyzed by immunohistochemistry for a set of cellular markers (keratin 16, CD3. CD11c. ICAM-1, Langerin, CD56, Foxp3, and HLA-DR) to assess epidermal growth/differentiation, skin infiltration by T-cells and dendritic cells (DC), presence of regulatory T-cells, and the presence of inflammation-regulating molecules in skin lesions.

SMILES: CCOc1cc([C@@H](CS(C)(=O)=O)N2C(=O)c3cccc(NC(C)=O)c3C2=O)ccc1OC [(S)—N-(2-(1-(3-ethoxy-4-methoxyphenyl)-2-(methylsulfonyl)ethyl)-1,3-dioxoisoindolin-4-yl)acetamide]
- CD3+ T cells in the epidermis and dermis (20 mg BID): significant reductions
- CD56+ NK cells in the epidermis (20 mg BID): significant reductions
- CD56 in Epidermis: Biopsy Parameters Median Change (%) (Week 4, 20 mg BID, No. 16): −75.6%
- Langerin in Dermis: Biopsy Parameters Median Change (%) (Week 4, 20 mg BID, No. 17): −50.0%
- CD11c in Epidermis: Biopsy Parameters Median Change (%) (Week 4, 20 mg BID, No. 18): −73.1%
- CD3 in Dermis: Biopsy Parameters Median Change (%) (Week 4, 20 mg BID, No. 19): −24.5%
- CD3 in Epidermis: Biopsy Parameters Median Change (%) (Week 4, 20 mg BID, No. 19): −35.0%
- Thickness: Biopsy Parameters Median Change (%) (Week 4, 20 mg BID, No. 19): −22.9%
- CD11c in Dermis: Biopsy Parameters Median Change (%) (Week 4, 20 mg BID, No. 20): −45.8%
- CD56 in Dermis: Biopsy Parameters Median Change (%) (Week 4, 20 mg BID, No. 20): −27.6%
- Langerin in Epidermis: Biopsy Parameters Median Change (%) (Week 4, 20 mg BID, No. 20): 9.49%
- CD3 T cells in Dermis: Median % change from baseline (Week 4, 20 mg b.i.d.): −24.5%
- CD3 T cells in Epidermis: Median % change from baseline (Week 4, 20 mg b.i.d.): −35.0%
- CD11c myeloid DC in Dermis: Median % change from baseline (Week 4, 20 mg b.i.d.): −45.8%
- CD11c myeloid DC in Epidermis: Median % change from baseline (Week 4, 20 mg b.i.d.): −73.1%
- CD56 NK cells in Dermis: Median % change from baseline (Week 4, 20 mg b.i.d.): −27.6%
- CD56 NK cells in Epidermis: Median % change from baseline (Week 4, 20 mg b.i.d.): −75.6%
- Epidermal Thickness: Median % change from baseline (Week 4, 20 mg b.i.d.): −22.9%
- Langerin in Dermis: Median % change from baseline (Week 4, 20 mg b.i.d.): −50.0%
- Langerin in Epidermis: Median % change from baseline (Week 4, 20 mg b.i.d.): 9.5%
- reduction of epidermal CD11c+ infiltrates (Week 4, 20 mg b.i.d.): 73%
- CD56 in Epidermis: Biopsy Parameters Median Change (%) (Week 12, 20 mg BID, No. 12): −77.6%
- Langerin in Dermis: Biopsy Parameters Median Change (%) (Week 12, 20 mg BID, No. 12): −67.0%
- CD11c in Epidermis: Biopsy Parameters Median Change (%) (Week 12, 20 mg BID, No. 13): −97.5%
- CD11c in Dermis: Biopsy Parameters Median Change (%) (Week 12, 20 mg BID, No. 14): −56.0%
- Thickness: Biopsy Parameters Median Change (%) (Week 12, 20 mg BID, No. 14): −34.8%
- CD3 in Dermis: Biopsy Parameters Median Change (%) (Week 12, 20 mg BID, No. 15): −63.1%
- CD3 in Epidermis: Biopsy Parameters Median Change (%) (Week 12, 20 mg BID, No. 15): −56.1%
- CD56 in Dermis: Biopsy Parameters Median Change (%) (Week 12, 20 mg BID, No. 15): −18.2%
- Langerin in Epidermis: Biopsy Parameters Median Change (%) (Week 12, 20 mg BID, No. 15): 41.67%
- CD3 T cells in Dermis: Median % change from baseline (Week 12, 20 mg b.i.d.): −62.0%
- CD3 T cells in Epidermis: Median % change from baseline (Week 12, 20 mg b.i.d.): −47.4%
- CD11c myeloid DC in Dermis: Median % change from baseline (Week 12, 20 mg b.i.d.): −54.6%
- CD11c myeloid DC in Epidermis: Median % change from baseline (Week 12, 20 mg b.i.d.): −88.6%
- CD56 NK cells in Dermis: Median % change from baseline (Week 12, 20 mg b.i.d.): −12.5%
- CD56 NK cells in Epidermis: Median % change from baseline (Week 12, 20 mg b.i.d.): −73.3%
- Epidermal Thickness: Median % change from baseline (Week 12, 20 mg b.i.d.): −34.3%
- Langerin in Dermis: Median % change from baseline (Week 12, 20 mg b.i.d.): −57.9%
- Langerin in Epidermis: Median % change from baseline (Week 12, 20 mg b.i.d.): 17.1%
- reduction of epidermal CD11c+ infiltrates (Week 12, 20 mg b.i.d.): 84%
- cases showing improvement in psoriasis (reduction in epidermal hyperplasia and/or keratin 16 staining) (day 29, of the 20 cases analyzed, 20 mg b.i.d.): 10 cases
- T-cells in biopsies (day 29 and day 85 biopsies, overall reductions not statistically significant): reductions
- median reduction in epidermal thickness (day 85, 20 mg b.i.d.): 34%
- epidermal Langerhan's cells (day 85 biopsies): small increase
- cases showing absence of keratin 16 staining (day 85 biopsies, 20 mg b.i.d.): 5 cases
- cases showing disease improvement (day 85 biopsies, of the 20 cases analyzed, 20 mg b.i.d.): Nine
- CD56+ cells (NK cells or NK-T-cells) (during treatment, between week 4 and week 12): minimally altered
- inflammatory myeloid CD11c+ DCs (TIP-DCs) (epidermis and dermis, week 4 and week 12, 20 mg BID): major reduction
- Langerin in the epidermis (not statistically significant, not elevated in the dermis, 20 mg BID): slightly elevated
- reductions in cellular infiltrates in epidermis and dermis, responders vs non-responders (responders: change in PASI of 75% or more at week 12): greater among responders
- reduction in epidermal thickness (week 4, all measured values of thickness, 20 mg b.i.d.): 23%
- median reduction of dermal CD11c+ DCs (week 4 biopsies, 20 mg b.i.d.): 45%
